Data taken from patent publication US20250257051A1, “SUBSTITUTED PYRIMIDINE COMPOUNDS AS TYK2 INHIBITORS” (1910 Genetics Inc., priority 2022, published 2025).
Several values for one entry are separate records, joined by “and”; a condition that tells them apart may be missing. Equal entries are not always repeated. Structures can show the parent of a compound that is named as a salt. Where two headings read alike, the source gives them in different places.

Biological target: human TYK2 (JH2domain-pseudokinase) (Homo sapiens (Human), UniProt P29597)
Experiment: TYK2 JH2 Domain Binding Assay (KINOMEscan competition binding)
Procedure: Binding constants for compounds disclosed herein may be determined by the KINOMEscan® assay developed by DiscoveRx. KINOMEscan® is based on a competition binding assay that quantitatively measures the ability of a compound to compete with an immobilized, active-site directed ligand. The assay is performed by combining three components: DNA-tagged kinase; immobilized ligand; and a test compound. The ability of the test compound to compete with the immobilized ligand is measure via quantitative PCR of the DNA tag.
Binding constants for compounds disclosed herein against the JH2 domain are determined by the following protocol for a KINOMEscan® assay (DiscoveRx). A fusion protein of a partial length construct of human TYK2 (JH2domain-pseudokinase) (amino acids G556 to D888 based on reference sequence NP 003322.3) and the DNA binding domain of NFkB is expressed in transiently transfected HEK293 cells. From these HEK 293 cells, extracts are prepared in M-PER extraction buffer (Pierce) in the presence of Protease Inhibitor Cocktail Complete (Roche) and Phosphatase Inhibitor Cocktail Set II (Merck) per manufacturers' instructions. The TYK2 (JH2domain-pseudokinase) fusion protein is labeled with a chimeric double-stranded DNA tag containing the NFkB binding site (5′-GGGAATTCCC-3′) fused to an amplicon for qPCR readout, which is added directly to the expression extract (the final concentration of DNA-tag in the binding reaction is 0.1 nM).
Streptavidin-coated magnetic beads (Dynal M280) are treated with a biotinylated small molecule ligand for 30 minutes at room temperature to generate affinity resins for the binding assays. The liganded beads are blocked with excess biotin and washed with blocking buffer (SeaBlock (Pierce), 1% BSA, 0.05% Tween 20, 1 mM DTT) to remove unbound ligand and to reduce nonspecific binding.
Extracts are used directly in binding assays without any enzyme purification steps at a >10,000-fold overall stock dilution (final DNA tagged enzyme concentration<0.1 nM). Extracts are loaded with DNA-tag and diluted into the binding reaction in a two-step process. First extracts are diluted 1:100 in 1× binding buffer (PBS/0.05% Tween 20/10 mM DTT/0.1% BSA/[…] sonicated salmon sperm DNA) containing 10 nM DNA-tag. This dilution is allowed to equilibrate at room temperature for 15 minutes and then subsequently diluted 1:100 in 1× binding buffer. Test compounds are prepared as 111× stocks in 100% DMSO. Kds are determined using an 11-point 3-fold compound dilution series with three DMSO control points. All compounds for Kd measurements are distributed by acoustic transfer (non-contact dispensing) in 100% DMSO. The compounds are then diluted directly into the assays such that the final concentration of DMSO is 0.9%. All reactions performed in polypropylene 384-well plates. Each is a final volume of 0.02 mL. Assays are incubated with shaking for 1 hour at room temperature. Then the beads are pelleted and washed with wash buffer (lx PBS, 0.05% Tween 20) to remove displaced kinase and test compound. The washed beads are re-suspended in elution buffer (lx PBS, 0.05% Tween 20, 0.5 μM non-biotinylated affinity ligand) and incubated at room temperature with shaking for 30 minutes. The kinase concentration in the eluates is measured by qPCR. qPCR reactions are assembled by adding 2.5 μL of kinase eluate to 7.5 μL of qPCR master mix containing 0.15 μM amplicon primers and 0.15 μM amplicon probe. The qPCR protocol consists of a 10-minute hot start at 95° C., followed by 35 cycles of 95° C. for 15 seconds, 60° C. for 1 minute.
Test compounds are prepared as 111× stocks in 100% DMSO. Kds are determined using an 11-point 3-fold compound dilution series with three DMSO control points. All compounds for Kd measurements are distributed by acoustic transfer (non-contact dispensing) in 100% DMSO. The compounds are then diluted directly into the assays such that the final concentration of DMSO is 0.9%. […]

[1] = KINOMEscan, 11-point 3-fold dilution, top concentration 30,000 nM, Kd measurements in duplicate, read-out: TYK JH2 (Kd)

Sequence of human TYK2 (JH2domain-pseudokinase) (P29597 556-888): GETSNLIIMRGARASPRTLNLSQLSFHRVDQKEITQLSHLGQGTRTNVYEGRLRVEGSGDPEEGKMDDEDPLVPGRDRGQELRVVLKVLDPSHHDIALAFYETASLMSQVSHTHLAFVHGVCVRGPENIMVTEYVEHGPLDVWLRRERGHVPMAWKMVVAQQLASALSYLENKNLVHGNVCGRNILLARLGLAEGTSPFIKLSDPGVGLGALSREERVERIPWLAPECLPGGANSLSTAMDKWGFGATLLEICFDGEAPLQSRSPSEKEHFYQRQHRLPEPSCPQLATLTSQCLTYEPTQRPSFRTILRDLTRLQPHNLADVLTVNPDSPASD

Row | Kd [1] | Kd (footnote a: the two measurements averaged for Cmpd. No. 5, read-out: TYK JH2 (Kd, nM), individual measurements) | Compound
1 | 180 nM | – | CC1CN(C(=O)OC(C)(C)C)CCN1c1ncc(C(N)=O)c(Nc2ccccc2S(C)(=O)=O)n1 (racemic) [Compound 55, Tert-Butyl 4-(5-carbamoyl-4-((2-(methylsulfonyl)phenyl)amino)pyrimidin-2-yl)-3-methylpiperazine-1-carboxylate]
2 | 120 nM | – | CC(=O)N1CCN(c2ncc(C(N)=O)c(Nc3ccccc3S(C)(=O)=O)n2)C(C)C1 (racemic) [Compound 62, 2-(4-acetyl-2-methylpiperazin-1-yl)-4-((2-(methylsulfonyl)phenyl)amino)pyrimidine-5-carboxamide]
3 | 1400 nM | – | CC1CNCCN1c1ncc(C(N)=O)c(Nc2ccccc2S(C)(=O)=O)n1 (racemic) [Compound 63, 2-(2-methylpiperazin-1-yl)-4-((2-(methylsulfonyl)phenyl)amino)pyrimidine-5-carboxamide hydrochloride]
4 | 170 nM | – | CNC(=O)c1cnc(N2CCC(C(=O)NC)C2)nc1Nc1ccc(C2CC2)nc1 (stereo not drawn) [Compound 1, 4-((6-cyclopropylpyridin-3-yl)amino)-N-methyl-2-(3-(methylcarbamoyl)pyrrolidin-1-yl)pyrimidine-5-carboxamide]
5 | 12 nM | – | NC(=O)c1cnc(N2CCCC2)nc1Nc1ccc(C2CC2)nc1 [Compound 2, 4-((6-cyclopropylpyridin-3-yl)amino)-2-(pyrrolidin-1-yl)pyrimidine-5-carboxamide]
6 | 54 nM | – | CNC(=O)[C@H]1CCN(c2ncc(C(N)=O)c(Nc3ccc(C4CC4)nc3)n2)C1 [Compound 3, (S)-4-((6-cyclopropylpyridin-3-yl)amino)-2-(3-(methylcarbamoyl)pyrrolidin-1-yl)pyrimidine-5-carboxamide]
7 | 38 nM | – | CNC(=O)[C@@H]1CCN(c2ncc(C(N)=O)c(Nc3ccc(C4CC4)nc3)n2)C1 [Compound 4, (R)-4-((6-cyclopropylpyridin-3-yl)amino)-2-(3-(methylcarbamoyl)pyrrolidin-1-yl)pyrimidine-5-carboxamide]
8 | 0.69 nM | 0.45 nM and 0.93 nM | CNC(=O)c1cnc(N2CC[C@@H](C(=O)NC)C2)nc1Nc1cccc(-c2ncc(F)cn2)c1OC [Compound 5, (R)-4-((3-(5-fluoropyrimidin-2-yl)-2-methoxyphenyl)amino)-N-methyl-2-(3-(methylcarbamoyl)pyrrolidin-1-yl)pyrimidine-5-carboxamide]
9 | 430 nM | – | CNC(=O)c1cnc(N2CC[C@H](C(=O)NC)C2)nc1Nc1ccc(C2CC2)nc1 [Compound 6, (S)-4-((6-cyclopropylpyridin-3-yl)amino)-N-methyl-2-(3-(methylcarbamoyl)pyrrolidin-1-yl)pyrimidine-5-carboxamide]
10 | 3.9 nM | – | CNC(=O)c1cnc(N2CC[C@H](C(=O)NC)C2)nc1Nc1cccc(-c2ncc(F)cn2)c1OC [Compound 7, (S)-4-((3-(5-fluoropyrimidin-2-yl)-2-methoxyphenyl)amino)-N-methyl-2-(3-(methylcarbamoyl)pyrrolidin-1-yl)pyrimidine-5-carboxamide]
11 | 360 nM | – | CNC(=O)c1cnc(N2CCCC2)nc1Nc1ccc(C(=O)N2CCOCC2)cc1 [Compound 8, N-methyl-4-((4-(morpholine-4-carbonyl)phenyl)amino)-2-(pyrrolidin-1-yl)pyrimidine-5-carboxamide]
12 | 240 nM | – | CNC(=O)c1cnc(N2CC[C@@H](C(=O)NC)C2)nc1Nc1ccc(C2CC2)nc1 [Compound 9, (R)-4-((6-cyclopropylpyridin-3-yl)amino)-N-methyl-2-(3-(methylcarbamoyl)pyrrolidin-1-yl)pyrimidine-5-carboxamide]
13 | 180 nM | – | CC(=O)N1CCN(c2ncc(C(N)=O)c(Nc3ccc(C4CC4)nc3)n2)C(C)C1 (stereo not drawn) [Compound 11, 2-(4-acetyl-2-methylpiperazin-1-yl)-4-((6-cyclopropylpyridin-3-yl)amino)pyrimidine-5-carboxamide]
14 | 800 nM | – | CC1CNCCN1c1ncc(C(N)=O)c(Nc2ccc(C3CC3)nc2)n1 (stereo not drawn) [Compound 12, 4-((6-cyclopropylpyridin-3-yl)amino)-2-(2-methylpiperazin-1-yl)pyrimidine-5-carboxamide]
15 | 1000 nM | – | CC1CN(C(=O)OC(C)(C)C)CCN1c1ncc(C(N)=O)c(Nc2ccc(C3CC3)nc2)n1 (stereo not drawn) [Compound 13, Tert-Butyl 4-(S-carbamoyl-4-((6-cyclopropylpyridin-3-yl)amino)pyrimidin-2-yl)-3-methylpiperazine-1-carboxylate]
16 | 42000 nM | – | CNC(=O)c1cnc(N2CCN(C(=O)OC(C)(C)C)CC2C)nc1Nc1ccc(C2CC2)nc1 (stereo not drawn) [Compound 15, Tert-Butyl 4-(4-((6-cyclopropylpyridin-3-yl)amino)-5-(methylcarbamoyl)pyrimidin-2-yl)-3-methylpiperazine-1-carboxylate]
17 | 2.6 nM | – | CCOC(=O)C1CCN(c2ncc(C(N)=O)c(Nc3ccccc3S(C)(=O)=O)n2)CC1 [Compound 16, Ethyl 1-(5-carbamoyl-4-((2-(methylsulfonyl)phenyl)amino)pyrimidin-2-yl)piperidine-4-carboxylate]
18 | 21 nM | – | CCOC(=O)C1CCN(c2ncc(C(=O)NC)c(Nc3ccccc3S(C)(=O)=O)n2)CC1 [Compound 17, Ethyl 1-(5-(methylcarbamoyl)-4-((2-(methylsulfonyl)phenyl)amino)pyrimidin-2-yl)piperidine-4-carboxylate]
19 | 440 nM | – | CNC(=O)c1cnc(N2CCN(C(=O)OC(C)(C)C)CC2C)nc1Nc1ccccc1S(C)(=O)=O (stereo not drawn) [Compound 18, Tert-Butyl 3-methyl-4-(5-(methylcarbamoyl)-4-((2-(methylsulfonyl)phenyl)amino)pyrimidin-2-yl)piperazine-1-carboxylate]
20 | 8200 nM | – | CNC(=O)c1cnc(N2CCC(C(=O)O)CC2)nc1Nc1ccc(C2CC2)nc1 [Compound 19, 1-(4-((6-cyclopropylpyridin-3-yl)amino)-5-(methylcarbamoyl)pyrimidin-2-yl)piperidine-4-carboxylic acid]
21 | 2500 nM | – | CCOC(=O)C1CCN(c2ncc(C(=O)NC)c(Nc3ccc(C4CC4)nc3)n2)CC1 [Compound 20, Ethyl 1-(4-((6-cyclopropylpyridin-3-yl)amino)-5-(methylcarbamoyl)pyrimidin-2-yl)piperidine-4-carboxylate]
22 | 14000 nM | – | CNC(=O)c1cnc(N2CCCN(C(C)=O)CC2)nc1Nc1ccc(C2CC2)nc1 [Compound 21, 2-(4-acetyl-1,4-diazepan-1-yl)-4-((6-cyclopropylpyridin-3-yl)amino)-N-methylpyrimidine-5-carboxamide]
23 | 11000 nM | – | CNC(=O)c1cnc(N2CCCNCC2)nc1Nc1ccc(C2CC2)nc1 [Compound 22, 4-((6-cyclopropylpyridin-3-yl)amino)-2-(1,4-diazepan-1-yl)-N-methylpyrimidine-5-carboxamide Hydrochloride]
24 | 1600 nM | – | CNC(=O)c1cnc(N2CCN(C(C)=O)CC2C)nc1Nc1ccccc1OC (stereo not drawn) [Compound 23, 2-(4-acetyl-2-methylpiperazin-1-yl)-4-((2-methoxyphenyl)amino)-N-methylpyrimidine-5-carboxamide]
25 | 4900 nM | – | CNC(=O)c1cnc(N2CCCN(C(C)=O)CC2)nc1Nc1ccccc1OC [Compound 24, 2-(4-acetyl-1,4-diazepan-1-yl)-4-((2-methoxyphenyl)amino)-N-methylpyrimidine-5-carboxamide]
26 | 180 nM | – | CNC(=O)c1cnc(N2CCNCC2C)nc1Nc1cccc(-c2ncc(F)cn2)c1OC (stereo not drawn) [Compound 25, 4-((3-(5-fluoropyrimidin-2-yl)-2-methoxyphenyl)amino)-N-methyl-2-(2-methylpiperazin-1-yl)pyrimidine-5-carboxamide Hydrochloride]
